Assay results published in ChEMBL document CHEMBL4364264, “Tetrazole hybrids with potential anticancer activity” (Eur J Med Chem, 2019).
In brackets after ≈: the same amount, converted by molar mass.

Assays:
HCT-116 [1] = assay: Cytotoxicity against human HCT116 cells after 96 hrs by MTT assay; type: functional, cell-based; settings: HCT-116, 96 h
PC-3 [2] = assay: cells; settings: Homo sapiens, PC-3, 48 h
HepG2 [3] = assay: Cytotoxicity against human HepG2 cells
HT-29 = assay: cells; settings: Homo sapiens, HT-29, 48 h
Description: Antiproliferative activity against human HT-29 cells after 48 hrs by MTT assay

HepG2 [4] = assay: Cytotoxicity against human HepG2 cells after 96 hrs by MTT assay; type: functional, cell-based; settings: HepG2, 96 h
HeLa [5] = assay: Cytotoxicity against human HeLa cells; type: functional, cell-based
SK-BR-3 = assay: Cytotoxicity against human SKBR3 cells; type: functional, cell-based
Caco-2 = assay: Cytotoxicity against human Caco2 cells; type: functional, cell-based
MCF7 [6] = assay: Cytotoxicity against human MCF7 cells; type: functional, cell-based
HepG2 [7] = assay: Growth inhibition of human HepG2 cells; type: functional
MCF7 [8] = assay: Growth inhibition of human MCF7 cells; type: functional
HeLa [9] = assay: Growth inhibition of human HeLa cells; type: functional
MDA-MB-231 [10] = assay: Growth inhibition of human MDA-MB-231 cells by microtiter plate assay; type: functional
MCF7 [11] = assay: Growth inhibition of human MCF7 cells by microtiter plate assay; type: functional
DU-145 = assay: Growth inhibition of human DU145 cells by microtiter plate assay; type: functional
PANC-1 = assay: Cytotoxicity against human PANC1 cells; type: functional
SiHa = assay: Cytotoxicity against human SiHa cells; type: functional
MDA-MB-231 [12] = assay: Cytotoxicity against human MDA-MB-231 cells; type: functional
HCT-116 [13] = assay: Cytotoxicity against human HCT116 cells; type: functional, cell-based
PC-3 [14] = assay: Cytotoxicity against human PC3 cells; type: functional, cell-based

## COc1cccc2c1C(=O)c1c(O)c3c(c(O)c1C2=O)C[C@@](O)(C(=O)CO)C[C@@H]3O[C@H]1C[C@H](N)[C@H](O)[C@H](C)O1 [DOXORUBICIN]
HCT-116 [1]
  IC50: 2.6 µM
PC-3 [2]
  IC50: 3.86 µM
HepG2 [3]
  IC50: 4 µg/mL (≈ 7.36 µM)
HT-29
  IC50: 2.24 µM
HepG2 [4]
  IC50: 2.85 µM

## NC1=C(c2nnn[nH]2)C(c2cccc(O)c2)c2c(ccc3ccccc23)O1 (centres undefined)
HeLa [5]
  IC50: 15 to 87 µM
SK-BR-3
  IC50: 15 to 87 µM
Caco-2
  IC50: 15 to 87 µM
MCF7 [6]
  IC50: 15 to 87 µM

## CN(C)C(=O)NC(c1ccc(O)cc1)n1cnnn1 (centres undefined)
HepG2 [7]
  GI50: 8.2 to 41 µM
MCF7 [8]
  GI50: 8.2 to 41 µM
HeLa [9]
  GI50: 8.2 to 41 µM

## CCc1cc2c(cc1O)CC[C@@H]1[C@@H]2CC[C@]2(C)[C@@H](Cc3nnn[nH]3)CC[C@@H]12
MDA-MB-231 [10]
  GI50: 0.34 to 100 µM
MCF7 [11]
  GI50: 0.34 to 100 µM
DU-145
  GI50: 0.34 to 100 µM

## CCn1cc(C(=O)O)c(=O)c2cnc(N3CCN(C(=O)CCSc4nnnn4-c4ccc(Br)cc4)CC3)nc21
PANC-1
  GI50: 0.07 µM
SiHa
  GI50: 0.08 µM
MDA-MB-231 [12]
  GI50: 0.22 µM

## COc1cc(/C=C/C(=O)c2ccco2)ccc1Oc1nnnn1-c1ccccc1
HCT-116 [13]
  IC50: 2.5 to 7 µg/mL (≈ 6.44 to 18 µM)
PC-3 [14]
  IC50: 2.5 to 7 µg/mL (≈ 6.44 to 18 µM)

## CCc1cc2c(cc1O)CC[C@@H]1[C@@H]2CC[C@]2(C)[C@@H](Cc3nnn(C)n3)CC[C@@H]12
MDA-MB-231 [10]
  GI50: 0.8 to 47 µM
MCF7 [11]
  GI50: 0.8 to 47 µM
DU-145
  GI50: 0.8 to 47 µM

## CC[C@H](CC[C@@H](C)[C@H]1CC[C@H]2[C@H]3[C@H](CC[C@]12C)[C@@]1(C)CCCCC1=Cc1nnnn13)C(C)C
HCT-116 [1]
  IC50: 4.58 µM
HepG2 [4]
  IC50: 4.82 µM

## COc1cc(/C=C/C(=O)c2ccccc2OC)ccc1Oc1nnnn1-c1ccccc1
HCT-116 [13]
  IC50: 2.5 to 7 µg/mL (≈ 5.84 to 16.3 µM)
PC-3 [14]
  IC50: 2.5 to 7 µg/mL (≈ 5.84 to 16.3 µM)

## CN(C)C(=O)NC(c1ccccc1)n1cnnn1 (centres undefined)
HepG2 [7]
  GI50: 8.2 to 41 µM
MCF7 [8]
  GI50: 8.2 to 41 µM
HeLa [9]
  GI50: 8.2 to 41 µM

## O=C(O)Cn1nnc(-c2cn(-c3ccccc3)nc2-c2ccc(Cl)cc2)n1
PC-3 [2]
  IC50: 9.83 µM
HT-29
  IC50: 6.43 µM

## CCn1cc(C(=O)O)c(=O)c2cnc(N3CCN(C(=O)CCSc4nnnn4-c4ccc(OC)c(OC)c4OC)CC3)nc21
PANC-1
  GI50: 0.066 to 1.3 µM
SiHa
  GI50: 0.066 to 1.3 µM
MDA-MB-231 [12]
  GI50: 0.066 to 1.3 µM

## O=C(O)c1cn(C2CC2)c2cc(N3CCN(C(=O)CCSc4nnnn4-c4ccc(Br)cc4)CC3)c(F)cc2c1=O
PANC-1
  GI50: 0.066 to 1.3 µM
SiHa
  GI50: 0.066 to 1.3 µM
MDA-MB-231 [12]
  GI50: 0.066 to 1.3 µM

## COc1cccc(C2C(c3nnn[nH]3)=C(N)Oc3ccc4ccccc4c32)c1OC (centres undefined)
HeLa [5]
  IC50: 15 to 87 µM
SK-BR-3
  IC50: 15 to 87 µM
Caco-2
  IC50: 15 to 87 µM
MCF7 [6]
  IC50: 15 to 87 µM

## COc1ccccc1-c1nn(-c2ccccc2)cc1-c1nnn(CC(=O)O)n1
PC-3 [2]
  IC50: 7.23 to 48.3 µM
HT-29
  IC50: 7.23 to 48.3 µM

## O=C(O)Cn1nnc(-c2cn(-c3ccccc3)nc2-c2ccccc2)n1
PC-3 [2]
  IC50: 70.2 µM
HT-29
  IC50: 86.3 µM

## CCc1cc2c(cc1O)CC[C@@H]1[C@@H]2CC[C@]2(C)[C@@H](Cc3nnnn3C)CC[C@@H]12
MDA-MB-231 [10]
  GI50: 0.34 to 100 µM
MCF7 [11]
  GI50: 0.34 to 100 µM
DU-145
  GI50: 0.34 to 100 µM

## CCc1cc2c(cc1OS(N)(=O)=O)CC[C@@H]1[C@@H]2CC[C@]2(C)[C@@H](Cc3nnnn3C)CC[C@@H]12
MDA-MB-231 [10]
  GI50: 0.34 to 0.55 µM
MCF7 [11]
  GI50: 0.34 to 0.55 µM
DU-145
  GI50: 0.34 to 0.55 µM

## O=C(/C=C/c1ccccc1Oc1nnnn1-c1ccccc1)c1ccccc1
HCT-116 [13]
  IC50: 0.6 µg/mL (≈ 1.63 µM)
PC-3 [14]
  IC50: 1.6 µg/mL (≈ 4.34 µM)

## CC/C(=C(\c1ccccc1)c1ccc(OCCN(C)C)cc1)c1ccccc1 [TAMOXIFEN]
PANC-1
  GI50: 0.15 µM
SiHa
  GI50: 0.12 µM
MDA-MB-231 [12]
  GI50: 0.24 µM

## COc1cc(/C=C/C(=O)c2cccs2)ccc1Oc1nnnn1-c1ccccc1
HCT-116 [13]
  IC50: 2.5 µg/mL (≈ 6.18 µM)
PC-3 [14]
  IC50: 5 µg/mL (≈ 12.4 µM)
MCF7 [6]
  IC50: 2.9 µg/mL

## NC(=S)NNC(c1ccccc1)n1cnnn1 (centres undefined)
HepG2 [7]
  GI50: 5.2 to 8.1 µM
MCF7 [8]
  GI50: 5.2 to 8.1 µM
HeLa [9]
  GI50: 5.2 to 8.1 µM

## NC(=S)NNC(c1ccc(O)cc1)n1cnnn1 (centres undefined)
HepG2 [7]
  GI50: 5.2 to 29.8 µM
MCF7 [8]
  GI50: 5.2 to 29.8 µM
HeLa [9]
  GI50: 5.2 to 29.8 µM

## CCc1cc2c(cc1OS(N)(=O)=O)CC[C@@H]1[C@@H]2CC[C@]2(C)[C@@H](Cc3nnn(C)n3)CC[C@@H]12
MDA-MB-231 [10]
  GI50: 0.8 to 47 µM
MCF7 [11]
  GI50: 0.8 to 47 µM
DU-145
  GI50: 0.8 to 47 µM

## O=C(O)c1cn(C2CC2)c2cc(N3CCN(C(=O)CCSc4nnnn4-c4ccc(F)c(F)c4F)CC3)c(F)cc2c1=O
PANC-1
  GI50: 0.066 to 1.3 µM
SiHa
  GI50: 0.066 to 1.3 µM
MDA-MB-231 [12]
  GI50: 0.066 to 1.3 µM

## COc1cc(/C=C/C(=O)c2ccc(Cl)cc2)ccc1Oc1nnnn1-c1ccccc1
HCT-116 [13]
  IC50: 2.5 to 7 µg/mL (≈ 5.78 to 16.2 µM)
PC-3 [14]
  IC50: 2.5 to 7 µg/mL (≈ 5.78 to 16.2 µM)
